The values that follow come from PubChem BioAssay (NCI).

Molecules are shown by their SMILES.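 Results reflect a 48-hour exposure of cells in 96-well plates to compound at five concentrations. Definition used: TGI = concentration required for complete inhibition of growth.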 A value given as a limit tells only on which side of the number the result lay.

Among the test systems are 786-0 renal; A498 renal; K-562 leukemia; NCI-H226 lung; OVCAR-4 ovarian; OVCAR-5 ovarian; SK-OV-3 ovarian; SR leukemia; SW-620 colon; T-47D breast; TK-10 renal; U251 CNS; UACC-257 melanoma.
Common to all, as to experiment: growth of human tumour cells (NCI), 48 h

`OC1CC(O)c2c(Cl)sc(Cl)c21` (centres undefined): the TGI in the assay with 786-0 renal, with A498 renal, in the assay with K-562 leukemia, with NCI-H226 lung, in the assay on OVCAR-4 ovarian and in the assay on OVCAR-5 ovarian was over 100 µM throughout. The TGI was 82 µM with SK-OV-3 ovarian; over 100 µM in the assay with SR leukemia; over 100 µM in the assay on SW-620 colon; over 100 µM in the assay on T-47D breast; 82.3 µM in the assay on TK-10 renal; over 100 µM in the assay on U251 CNS. In addition, the TGI with UACC-257 melanoma was found to be 54.9 µM.

Regarding `O=[N+]([O-])c1cccc2nccc(NCC(O)CO)c12` (centres undefined), the TGI in the assay with 786-0 renal was 35 µM; in the assay on A498 renal, 19.3 µM; with K-562 leukemia it was over 93.3 µM; in the assay on NCI-H226 lung, 19.4 µM; with OVCAR-4 ovarian, 43 µM; in the assay with OVCAR-5 ovarian, 42.1 µM. Besides, the TGI in the assay with SK-OV-3 ovarian came to 74.9 µM; with SR leukemia it was 28 µM; in the assay with SW-620 colon, 36.1 µM; in the assay on T-47D breast it was 96.1 µM; in the assay with TK-10 renal, 44 µM; with U251 CNS, 32.6 µM. The TGI with UACC-257 melanoma was 30 µM.

Consider `C[Si](C)(C)OC1c2[nH]c3ccccc3c2CN2C(=O)CCC12` (centres undefined), for which the TGI in the assay on 786-0 renal, in the assay with A498 renal, with K-562 leukemia, in the assay with NCI-H226 lung, in the assay on OVCAR-4 ovarian and in the assay on OVCAR-5 ovarian was over 100 µM throughout. In addition, the TGI with SK-OV-3 ovarian, with SR leukemia, in the assay on SW-620 colon, in the assay on T-47D breast, in the assay with TK-10 renal and with U251 CNS was over 100 µM each time. In the assay on UACC-257 melanoma, the TGI was over 100 µM.

On to `N#CS/C(Cl)=C(/C(Cl)=C(Cl)Cl)[N+](=O)[O-]`, for which the TGI with 786-0 renal was 76.4 µM; with A498 renal, over 100 µM; in the assay on K-562 leukemia, over 100 µM; with NCI-H226 lung it was over 100 µM; with OVCAR-4 ovarian, over 100 µM; with OVCAR-5 ovarian it was over 100 µM. For the same compound, the TGI was over 100 µM in the assay with SK-OV-3 ovarian; 53.9 µM in the assay on SR leukemia; over 100 µM in the assay on SW-620 colon; over 100 µM with T-47D breast; over 100 µM with TK-10 renal; over 100 µM with U251 CNS. Moreover, in the assay with UACC-257 melanoma, the TGI is over 100 µM.

Take `Cc1ccc(S(=O)(=O)NNC(=S)Nc2cccc3ccccc23)cc1`: the TGI was over 100 µM in the assay with 786-0 renal; 99.5 µM with A498 renal; over 100 µM in the assay with K-562 leukemia; 95.2 µM with NCI-H226 lung; 66.8 µM in the assay on OVCAR-4 ovarian; over 100 µM in the assay on OVCAR-5 ovarian. The TGI in the assay with SK-OV-3 ovarian, with SR leukemia, in the assay with SW-620 colon, in the assay on T-47D breast, in the assay on TK-10 renal and in the assay with U251 CNS was over 100 µM in each case. The TGI in the assay on UACC-257 melanoma worked out at 52.1 µM.

Turning to `Cc1cc2c(s1)C(=O)c1sccc1C2=O`, the TGI in the assay on 786-0 renal was determined as 3.26 µM; in the assay with A498 renal, 3.17 µM; with NCI-H226 lung it was 3.37 µM; in the assay with OVCAR-4 ovarian, 1.45 µM; in the assay with OVCAR-5 ovarian, 3.29 µM; with SK-OV-3 ovarian, 4.47 µM. Besides, the TGI in the assay on SR leukemia was over 100 µM; with SW-620 colon, 0.719 µM; in the assay on T-47D breast, 3.02 µM; in the assay with TK-10 renal, 6.91 µM; in the assay with U251 CNS it was 2.55 µM; in the assay with UACC-257 melanoma, 0.385 µM.

As to `C=C1C(=O)C23CC1C[C@H](OC(C)=O)C2C1(C)C(OC(C)=O)C[C@H](O)C(C)(C)[C@H]1C(O)[C@@H]3OC(C)=O` (some centres undefined), the TGI in the assay on 786-0 renal turned out to be 20.7 µM; with A498 renal, 28.4 µM; with K-562 leukemia, 10.9 µM; with NCI-H226 lung, 45 µM; in the assay with OVCAR-4 ovarian it was 25.7 µM; in the assay on OVCAR-5 ovarian, 28.8 µM. The TGI in the assay with SK-OV-3 ovarian came out at 56.5 µM; in the assay with SR leukemia, 27.4 µM; with SW-620 colon, 6.14 µM; in the assay with T-47D breast, 24.8 µM; in the assay on TK-10 renal it was 17 µM; in the assay with U251 CNS, 28.9 µM. In addition, the TGI in the assay with UACC-257 melanoma amounted to 24.5 µM.

Regarding `CCOC(=O)CCC(NC(=O)c1ccc(Nc2nc3cc(C(F)(F)F)ccc3nc2-c2ccccc2)cc1)C(=O)OCC` (centres undefined), the TGI in the assay with 786-0 renal, in the assay on A498 renal, in the assay with K-562 leukemia, in the assay on NCI-H226 lung, in the assay with OVCAR-4 ovarian and with OVCAR-5 ovarian was over 100 µM each time. The TGI in the assay with SK-OV-3 ovarian, in the assay on SR leukemia, with SW-620 colon, with T-47D breast, in the assay on TK-10 renal and in the assay with U251 CNS was over 100 µM throughout. Also, the TGI with UACC-257 melanoma was over 100 µM.

Take `O=C1CC2(CCC(O)(c3ccc(Cl)cc3)C(C(=O)c3ccc(Cl)cc3)C2)C(=O)c2ccccc2N1` (centres undefined): the TGI in the assay with 786-0 renal was 4.24 µM; in the assay with A498 renal, 52.6 µM; with K-562 leukemia it was over 100 µM; with NCI-H226 lung, over 52.5 µM; with OVCAR-4 ovarian, over 100 µM; in the assay on OVCAR-5 ovarian, over 100 µM. Moreover, the TGI with SK-OV-3 ovarian is 35.1 µM; with SR leukemia it was over 100 µM; with SW-620 colon it was over 100 µM; in the assay on T-47D breast, over 72.3 µM; in the assay on TK-10 renal, 39.2 µM; in the assay on U251 CNS, over 31.9 µM. The same compound yielded a TGI in the assay with UACC-257 melanoma of 62.6 µM.

As for `O=[N+]([O-])C(=C(N1CCOCC1)N1CCOCC1)/C(Cl)=C(\Cl)[N+](=O)[O-]`, the TGI with 786-0 renal is 9.76 µM; in the assay with A498 renal, 36.1 µM; in the assay with K-562 leukemia, over 100 µM; with NCI-H226 lung it was over 100 µM; with OVCAR-4 ovarian, 30.7 µM; in the assay on OVCAR-5 ovarian it was 31.4 µM. In addition, the TGI in the assay on SK-OV-3 ovarian is over 100 µM; in the assay on SR leukemia, over 100 µM; with SW-620 colon, 5.27 µM; in the assay on T-47D breast it was 4.39 µM; in the assay on TK-10 renal it was 3.89 µM; in the assay with U251 CNS, 37.8 µM. Also, in the assay with UACC-257 melanoma, the TGI came to 10.5 µM.
